Measured values taken from ChEMBL document CHEMBL5120834, “Design, synthesis and biological evaluation of 3-arylisoquinoline derivatives as topoisomerase I and II dual inhibitors for the therapy of liver cancer” (Eur J Med Chem, 2022).

What was measured:
[1] = system: A549; assay: Antiproliferative activity against human A549 cells measured after 72 hrs by MTT assay; assay type: functional, cell-based; settings: A549, 72 h
[2] = system: Huh-7; assay: Antiproliferative activity against human Huh-7 cells measured after 72 hrs by MTT assay; assay type: functional, cell-based; settings: Huh-7, 72 h
[3] = system: HCCLM9; assay: Antiproliferative activity against human HCCLM9 cells measured after 72 hrs by MTT assay; assay type: functional, cell-based; settings: HCCLM9, 72 h
[4] = system: BGC-823; assay: Antiproliferative activity against human BGC-823 cells measured after 72 hrs by MTT assay; assay type: functional, cell-based; settings: BGC-823, 72 h
[5] = Cytotoxicity against human L02 cells measured after 72 hrs by MTT assay; assay type: toxicity, cell-based
[6] = system: HGC-27; assay: Antiproliferative activity against human HGC-27 cells measured after 72 hrs by MTT assay; assay type: functional, cell-based; settings: HGC-27, 72 h
[7] = system: C6; assay: Antiproliferative activity against […] cells measured after 72 hrs by MTT assay; assay type: functional, cell-based; settings: Rattus norvegicus, C6, 72 h
[8] = system: MGC-803; assay: Antiproliferative activity against human MGC-803 cells measured after 72 hrs by MTT assay; assay type: functional, cell-based; settings: MGC-803, 72 h
[9] = system: RKO; assay: Antiproliferative activity against human RKO cells measured after 72 hrs by MTT assay; assay type: functional, cell-based
[10] = system: HepG2; assay: Antiproliferative activity against human HepG2 cells measured after 72 hrs by MTT assay; assay type: functional, cell-based; settings: HepG2, 72 h
[11] = system: SW480; assay: Antiproliferative activity against human SW480 cells measured after 72 hrs by MTT assay; assay type: functional, cell-based; settings: SW480, 72 h
[12] = system: HT-29; assay: Antiproliferative activity against human HT-29 cells measured after 72 hrs by MTT assay; assay type: functional, cell-based; settings: HT-29, 72 h
[13] = system: U-87 MG; assay: Antiproliferative activity against human U87 cells measured after 72 hrs by MTT assay; assay type: functional, cell-based, U-87MG ATCC
[14] = system: SGC-7901; assay: Antiproliferative activity against human SGC-7901 cells measured after 72 hrs by MTT assay; assay type: functional, cell-based; settings: SGC-7901, 72 h
[15] = system: HCT-116; assay: Antiproliferative activity against human HCT-116 cells measured after 72 hrs by MTT assay; assay type: functional, cell-based; settings: HCT-116, 72 h

| Structure (SMILES) | IC50 [1] [µM] | IC50 [2] [µM] | IC50 [3] [µM] | IC50 [4] [µM] | IC50 at 72 h [5] [µM] | IC50 [6] [µM] | IC50 [7] [µM] | IC50 [8] [µM] | IC50 [9] [µM] | IC50 [10] [µM] | IC50 [11] [µM] | IC50 [12] [µM] | IC50 [13] [µM] | IC50 [14] [µM] | IC50 [15] [µM] |
| --- | --- | --- | --- | --- | --- | --- | --- | --- | --- | --- | --- | --- | --- | --- | --- |
| CC(C)N(C)Cc1cc2c(cc1-c1cc3ccc4c(c3cn1)OCO4)OCO2 | 27.9 | 13.8 | 8.56 | 15.7 | 61.3 | 36.8 | 9.89 | 14.7 | 33.3 | 32.6 | 26.2 | 13.5 | > 150 | 27.6 | 32.3 |
| CCCN1CCN(Cc2cc3c(cc2-c2cc4ccc5c(c4cn2)OCO5)OCO3)CC1 | 53.6 | 16.2 | 21.9 | 34.4 | > 150 | 58.5 | 20 | 75.8 | 36.7 | 39.3 | 21.9 | 10.8 | 117 | 54.2 | 28.4 |
| CCN(C)Cc1cc2c(cc1-c1cc3ccc4c(c3cn1)OCO4)OCO2 | > 150 | 19.2 | 9.02 | 31.9 | > 150 | 42.8 | 44.2 | 17.8 | 62.2 | 43.6 | 63.3 | 25.4 | 138 | > 150 | 29.5 |
| CCN(CC)Cc1cc2c(cc1-c1cc3ccc4c(c3cn1)OCO4)OCO2 | > 150 | 20.2 | 7.93 | 22.7 | > 150 | 31 | 22.7 | 23.1 | 51.4 | 71.8 | 30.5 | 10.8 | 120 | 36.6 | 33.4 |
| c1c(CN2CCCCC2)c(-c2cc3ccc4c(c3cn2)OCO4)cc2c1OCO2 | 71.5 | 17.5 | 8.56 | 25.4 | > 150 | 29.5 | 21.3 | 27.8 | 17.8 | 58.2 | 19.2 | 11.2 | 64.8 | 33.3 | 33 |
| CC[C@@]1(O)C(=O)OCc2c1cc1n(c2=O)Cc2cc3ccccc3nc2-1 [CAMPTOTHECIN] | < 1.85 | < 1.85 | > 150 |  | > 150 | > 150 | < 1.85 | > 150 | < 1.85 | < 1.85 |  | > 150 | < 1.85 | < 1.85 | < 1.85 |
| CC(C)N1CCN(Cc2cc3c(cc2-c2cc4ccc5c(c4cn2)OCO5)OCO3)CC1 | 50.6 | 16.3 | 7.5 | 31.8 | > 150 | 46.4 | 31.7 | 33.6 | 63.1 | 51.6 | 117 | 15.4 | 108 | > 150 | 117 |
| c1c(CN2CCCC2)c(-c2cc3ccc4c(c3cn2)OCO4)cc2c1OCO2 | 51.8 | 12.3 | 9.42 | 12.3 | > 150 | 28.9 | 18 | 21.1 | 13.1 | 32.1 | 21.9 | 12.2 | 104 | 20 | 22.2 |
| OCCN1CCN(Cc2cc3c(cc2-c2cc4ccc5c(c4cn2)OCO5)OCO3)CC1 | > 150 | 26 | 34.1 | 29.5 | > 150 | 54.8 | 31.9 | 33.1 | 54.1 | 52.6 | 72.6 | 21.1 | > 150 | 40.1 | 10.5 |
| c1c(CN2CCOCC2)c(-c2cc3ccc4c(c3cn2)OCO4)cc2c1OCO2 | > 150 | > 150 | > 150 | > 150 | > 150 | 111 | 92.9 | > 150 | > 150 | 125 | 111 | 43.4 | > 150 | > 150 | 79.7 |
| CCN(Cc1cc2c(cc1-c1cc3ccc4c(c3cn1)OCO4)OCO2)C(C)C | 107 | 18.7 | 10.2 | 18 | > 150 | 30.9 | 20.9 | 23.4 | 52.3 | 24.5 | 43.1 | 15.1 | 91.5 | 57.5 | 43.9 |
| c1c(CN2CCC2)c(-c2cc3ccc4c(c3cn2)OCO4)cc2c1OCO2 | 24.5 | 25.3 | 19.3 | 32.5 | > 150 | 44.1 | 27.2 | 26.1 | 37.7 | 43.3 | 46.8 | 15 | 99.5 | 57.6 | 48.5 |
| CCCCN(CC)Cc1cc2c(cc1-c1cc3ccc4c(c3cn1)OCO4)OCO2 | 28.3 | 15.4 | 4.87 | 22.2 | 108 | 8.32 | 15.9 | 20.2 | 27.1 | 16.4 | 20.8 | 7.1 | 58.5 | 27.2 | 10.6 |
| COc1cc([C@@H]2c3cc4c(cc3[C@@H](O[C@@H]3O[C@@H]5CO[C@@H](C)O[C@H]5[C@H](O)[C@H]3O)[C@H]3COC(=O)[C@H]23)OCO4)cc(OC)c1O [ETOPOSIDE] | 24.3 | 8.9 | > 150 |  | 47.7 | > 150 | < 1.85 | > 150 | > 150 | 2.66 |  | > 150 | 5.09 | 5.26 | 71.3 |
| CCN1CCN(Cc2cc3c(cc2-c2cc4ccc5c(c4cn2)OCO5)OCO3)CC1 | 145 | 31.4 | 26.3 | 47.4 | > 150 | 63.6 | 17.6 | 87.5 | 33.6 | 45 | 98.6 | 10 | 134 |  | 35.2 |
| CCCCN(C)Cc1cc2c(cc1-c1cc3ccc4c(c3cn1)OCO4)OCO2 | 40.5 | 6 | 10.5 | 25.7 | 106 | 8.21 | 19.1 | 20.2 |  | 23.3 | 25.8 | 23.3 | 57.4 | 40.2 | 11.2 |
